Results on two compounds are retold here after patent US8609695B2, “Methods of treating and/or suppressing insulin resistance” (Endorecherche, Inc., priority 1999, dated 2013).

The subject of one assay is intact female rats. The experiment in a line: 6-month treatment, fat accumulation in intact female rats receiving or not LHRH-A (Example 5). The class given is in vivo, Rattus norvegicus. Also on record: FAT (%): dose or concentration left out as unconfirmed. Conditions: 6 months; for FAT (%): DEXA, once daily; for increment of the percentage of body fat under LHRH-A: concomitant with LHRH-A. Here is the method: The objective of this study is to determine the effect on fat of treatment with EM-652.HCl and dehydroepiandrosterone (DHEA) in intact female rats receiving or not a luteinizing hormone releasing hormone agonist (LHRH-A, LHRH ethylamide diacetate). For this purpose, intact female rats, treated or not with LHRH-A (2 μg/rat), received daily administration of EM-652.HCl (2.5 mg/kg) and DHEA (100 mg/kg), alone or in combination, for 6 months. EM-652.HCl was administered orally, DHEA was applied topically while LHRH-A was injected subcutaneously. All treatments were administered once daily.
One hundred twenty rats were separated into 8 groups of 15 animals for conduct of the study outlined below:
The LHRH-A is available in solution at a concentration of 1.0 mg/ml. We diluted this concentrated solution (in order to obtain a final concentration of 0.004 mg/ml) by using the following vehicle: 0.3% Sodium Chloride and 0.25% Sodium Phosphate monobasic, monohydrate in water. The sodium hydroxide (aqueous) was used to adjust the pH between 5.6-6.2.
Dosing suspensions/solutions were prepared every two weeks according to the most recent body weight (group mean) except for the LHRH-A solution. For EM-652.HCl administered orally, the vehicle (0.4% methylcellulose) was added to the tested compound, previously weighed into a glass bottle, at least 48 hours prior to the first dosing day. To ensure the homogeneity of dosing suspension, it was stirred at least 48 hours at 2 to 8 C. Dosing suspension was kept at 2 to 8 C. For DHEA solution applied topically, the ethanol was added to DHEA and the mix were agitated until dissolution of DHEA. Then, the polypropylene glycol was added and the solution agitated until homogeneity. Dosing solution was kept at 2 to 8 C. For LHRH-A solution injected subcutaneously, a dilution of the concentrated solution using the appropriate vehicle was prepared every month. Dosing solution was kept at 2 to 8 C.
The administration of tested compounds or vehicle was given from on Study Day 1 of the protocol. The tested compounds were given as suspension in 0.4% methylcellulose by oral gavage (0.5 ml/gavage/rat) once daily or were applied topically in 50% ethanol-50% propylene glycol (0.5 ml/application/rat) once daily. Rats from groups 5 to 8 received also the LHRH-A once daily by subcutaneous injection (0.5 ml/injection/rat). Rats not receiving a tested compound orally and/or topically received the appropriate vehicle alone.
Body composition was measured on whole skeleton of animal under Isoflurane-induced anesthesia using dual energy x-ray absorptiometry (DEXA; QDR 4500A, Hologic) during the acclimation period and after 6 months of treatment.

Assay [1] concerns ovariectomized female rats. The assay is described as follows: 34-week treatment with ethynyl estradiol, EM-652.HCl, Raloxifene and DHEA, body fat (Example 7). Conditions: OVX rats, 34 weeks; for Fat %: DEXA; for Fat % / Left retroperitoneal adipose tissue / Right retroperitoneal adipose tissue: EE2 0.1, Raloxifene 1, EM-652.HCl 1 mg/kg oral, DHEA 80 mg/kg topical. The class given is in vivo, rat. Here is the method:
The objective of this study was to assess the effect of a combined treatment with EM-652.HCl, and DHEA on body fat and body weight parameters in ovariectomized rats. For this purpose, ovariectomized rats received daily administration of EM-652.HCl (1 mg/kg), and DHEA (80 mg/kg) alone or in combination, for 34 weeks. EM-652.HCl was administered orally while DHEA was applied topically on dorsal skin. One group of animals was orally treated with 17-ethynylestradiol (0.1 mg/kg) and Raloxifene (EM-1105; 1 mg/kg) for comparison.
Ten to twelve week-old female Sprague-Dawley rats (Crl:CD(SD)Br) weighing approximately 235-250 g at start of treatment were used. Eighty rats were randomly distributed between 7 groups of 11 to 12 animals per group as follows: 1) Intact control; 2) OVX control; 3) OVX+EE2 (0.1 mg/kg); 4) OVX+raloxifene (1 mg/kg); 5) OVX+EM-652.HCl (1 mg/kg); 6) OVX+DHEA (80 mg/kg); 7) OVX+EM-652.HCl+DHEA. On day 1 of the study, the animals of the appropriate groups were bilaterally ovariectomized (OVX) under isoflurane anesthesia. EM-652.HCl, raloxifene and EE2 (Steraloids) were administered once daily by oral gavage as suspension in 0.4% methylcellulose (0.5 ml/rat) for 34 weeks while DHEA was applied topically once daily on dorsal skin as a solution in 50% ethanol-50% propylene glycol (0.5 ml/rat) for the same time period. Approximately 24 hours after the last dosing, overnight fasted animals were killed by exsanguination at the abdominal aorta under isoflurane anesthesia. Left and right retroperitoneal adipose tissues were collected and weighed.
After 34 weeks of treatment, individual rats under anesthesia with isoflurane had their whole body skeleton scanned using dual energy x-ray absorptiometry (DEXA; QDR 4500A, Hologic, Waltham, Mass.) and a Regional High Resolution Scan software. The body composition (including fat percentage) was determined.
Data were expressed as the means±SEM.

Regarding `C[C@]12CC[C@H](O)CC1=CC[C@@H]1[C@@H]2CC[C@]2(C)C(=O)CC[C@@H]12` [DHEA, dehydroepiandrosterone], in the assay with intact female rats, the “FAT (%)” value is on record as 20.2 ± 2.3% and the “increment of the percentage of body fat under LHRH-A” value stood at 19%. For the same compound, in assay [1], the “increment of body fat and retroperitoneal adipose tissue by ovariectomy” value is recorded as “prevented”; the Fat % is listed as 26.8 ± 2.3%; the “Left retroperitoneal adipose tissue” value was determined as 1.98 ± 0.17 g; the “Right retroperitoneal adipose tissue” value came out at 2.16 ± 0.25 g.

For `CC1=C(c2ccc(O)cc2)[C@H](c2ccc(OCCN3CCCCC3)cc2)Oc2cc(O)ccc21.Cl` [EM-652.HCl, (S)-(+)-7-hydroxy-3-(4′-hydroxyphenyl)-4-methyl-2-(4″-(2′″-piperidino-ethoxy)phenyl)-2H-1-benxopyran hydrochloride], in the assay on intact female rats, the “FAT (%)” value was 19.1 ± 1.4% and the “increment of the percentage of body fat under LHRH-A” value is given as 35%. Also, in assay [1], the “increment of body fat and retroperitoneal adipose tissue by ovariectomy” value is “prevented”; the Fat % was 27.7 ± 1.8%; the “Left retroperitoneal adipose tissue” value was found to be 2.19 ± 0.28 g; the “Right retroperitoneal adipose tissue” value came out at 2.07 ± 0.18 g.
